Earlier results as cited in PMC5580352 (Journal of medicinal chemistry, 2017).

Details: 1 week of administration of 20 mg/kg

Question: For `CCCC[S+]([O-])c1sc2nc(-c3cccs3)cc(-c3ccccc3)c2c1N` (stereo not shown) [Compound 1, 2-(butylsulfinyl)-4-phenyl-6-(thiophen-2-yl)thieno[2,3-b]pyridin-3-amine], which adverse effects is on record?
Answer: no adverse effects on weight, activity, blood counts or blood chemistry
